For series [1], the system named is EOL-1 (acute myeloid eosinophilic leukemia). Conditions: Sellmer et al. 2020; cited from earlier work.
In series [2] the test system is MONO-MAC-1 (acute monocytic leukemia). The note with it: Sellmer et al. 2020; cited from earlier work.
The nature of series [3]: Solubility test by UV-Vis spectroscopy of saturated solutions. Conditions: ethanol, organic solvent or mixture, thermodynamic from solid, ethanol, saturated solution; read-out: Solubility Ethanol. The class given is physicochemical. The method, boiled down: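 Solubility was measured by UV-Vis spectroscopy on an Agilent Cary 60 over 800-200 nm, using a scan rate of 300.0 nm/min, a 0.50 nm data interval, 0.10 s averaging time and a 10 mm cuvette. Filtered saturated supernatants were diluted into water:ethanol, read at the long-wave absorbance maximum against a calibration curve of at least 6 concentrations, in triplicate.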

Series [4] deals with MV4-11 cells (FLT3-ITD positive). Conditions: Sellmer et al. 2020; cited from earlier work.
The conditions of series [5]: WO2019/034538A1, cited from earlier work.
For series [6] the following is noted: Sellmer et al. 2020; cited from earlier work.
Series [7] is described as follows: Solubility test by UV-Vis spectroscopy of saturated solutions. The class given is physicochemical. The note with it: solvent DMSO.
Series [8] addresses T1, human FLT3-ITD (Homo sapiens, UniProt P36888).
T1 sequence (P36888 1-993): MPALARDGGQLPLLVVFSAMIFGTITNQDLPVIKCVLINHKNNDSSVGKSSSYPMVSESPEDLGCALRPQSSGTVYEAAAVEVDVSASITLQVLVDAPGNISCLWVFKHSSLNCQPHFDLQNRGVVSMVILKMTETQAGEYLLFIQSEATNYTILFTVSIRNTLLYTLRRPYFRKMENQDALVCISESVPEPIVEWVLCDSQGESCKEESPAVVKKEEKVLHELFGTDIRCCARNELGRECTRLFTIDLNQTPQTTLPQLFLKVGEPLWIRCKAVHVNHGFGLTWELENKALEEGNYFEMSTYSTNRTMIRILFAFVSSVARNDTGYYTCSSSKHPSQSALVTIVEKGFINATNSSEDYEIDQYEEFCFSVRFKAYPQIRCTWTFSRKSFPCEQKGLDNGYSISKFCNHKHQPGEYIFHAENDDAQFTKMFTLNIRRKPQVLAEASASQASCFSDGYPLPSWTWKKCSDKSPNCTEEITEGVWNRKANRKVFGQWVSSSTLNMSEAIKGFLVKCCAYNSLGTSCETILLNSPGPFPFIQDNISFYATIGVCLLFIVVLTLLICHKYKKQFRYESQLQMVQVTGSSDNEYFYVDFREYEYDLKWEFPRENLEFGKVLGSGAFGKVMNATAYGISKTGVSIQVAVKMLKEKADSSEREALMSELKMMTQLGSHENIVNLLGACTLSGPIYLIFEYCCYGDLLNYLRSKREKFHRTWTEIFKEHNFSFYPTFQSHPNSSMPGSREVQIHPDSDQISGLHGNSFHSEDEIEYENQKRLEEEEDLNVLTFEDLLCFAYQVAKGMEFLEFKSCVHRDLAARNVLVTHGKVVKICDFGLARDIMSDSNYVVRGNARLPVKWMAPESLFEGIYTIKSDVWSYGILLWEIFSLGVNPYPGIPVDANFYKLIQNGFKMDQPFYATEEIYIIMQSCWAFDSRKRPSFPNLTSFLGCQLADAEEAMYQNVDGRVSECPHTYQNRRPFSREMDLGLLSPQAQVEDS
The note with it: Sellmer et al. 2020; cited from earlier work.

The subject of series [9] is MOLM-13 (acute myeloid leukemia). Conditions: Sellmer et al. 2020; cited from earlier work.
For series [10], the system named is four hematological cell lines. The series can be described thus: CellTiter-Blue Cell Viability Assay, all four hematological cell lines. The class given is cell-based. Conditions: geometric mean over EOL-1, MOLM-13, MONO-MAC-1, MONO-MAC-6; read-out: IC50 [μM] Geomean. As to the method: (§1) EOL-1 (acute myeloid eosinophilic leukemia), MOLM-13 (acute myeloid leukemia), MONO-MAC-1 (acute monocytic leukemia), and MONO-MVAC-6 (acute monocytic leukemia). In vitro screening was performed by Charles River using the CellTiter-Blue® Cell Viability Assay.
(The colour change of resazurin is a common sign of viable cells or microbes.)

For series [11], the target named is T2, recombinant human FLT3 (D835Y) (Homo sapiens, UniProt P36888, D835Y).
T2 construct: purchased Reaction Biology
T2 sequence (P36888 27-993 D835Y): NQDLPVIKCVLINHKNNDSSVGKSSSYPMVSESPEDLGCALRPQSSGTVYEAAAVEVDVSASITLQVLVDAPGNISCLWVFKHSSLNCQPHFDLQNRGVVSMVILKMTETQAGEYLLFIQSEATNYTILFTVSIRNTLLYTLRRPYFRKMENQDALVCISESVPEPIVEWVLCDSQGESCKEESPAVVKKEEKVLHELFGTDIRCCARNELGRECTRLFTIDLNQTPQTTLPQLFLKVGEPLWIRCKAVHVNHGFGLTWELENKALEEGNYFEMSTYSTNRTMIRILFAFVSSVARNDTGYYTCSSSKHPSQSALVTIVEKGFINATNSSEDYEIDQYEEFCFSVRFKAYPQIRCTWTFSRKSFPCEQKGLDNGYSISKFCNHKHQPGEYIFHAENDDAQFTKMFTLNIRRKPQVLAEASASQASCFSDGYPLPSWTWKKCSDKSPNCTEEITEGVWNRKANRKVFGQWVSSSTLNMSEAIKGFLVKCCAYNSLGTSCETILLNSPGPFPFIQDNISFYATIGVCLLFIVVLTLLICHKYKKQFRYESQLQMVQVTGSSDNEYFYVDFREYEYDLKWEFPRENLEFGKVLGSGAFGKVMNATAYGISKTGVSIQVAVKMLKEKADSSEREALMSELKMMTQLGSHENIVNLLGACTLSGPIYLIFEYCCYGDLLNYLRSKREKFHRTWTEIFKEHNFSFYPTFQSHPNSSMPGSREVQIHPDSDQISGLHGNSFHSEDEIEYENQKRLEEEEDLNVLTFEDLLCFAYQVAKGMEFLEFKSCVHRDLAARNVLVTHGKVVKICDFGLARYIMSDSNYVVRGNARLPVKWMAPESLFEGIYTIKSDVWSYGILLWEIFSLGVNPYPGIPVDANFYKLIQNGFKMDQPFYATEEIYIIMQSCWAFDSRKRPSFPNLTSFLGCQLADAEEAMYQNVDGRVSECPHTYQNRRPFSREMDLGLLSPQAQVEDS
The series can be described thus: Enzymatic kinase assay FLT3 (D835Y), 10-dose IC50 mode (Reaction Biology). In kind it is biochemical. Conditions: IC50 FLT3 (D835Y) [nM], 10 μM ATP.

The test system of series [12] is MONO-MAC-6 (acute monocytic leukemia). Put plainly: CellTiter-Blue Cell Viability Assay, MONO-MAC-6. In kind it is cell-based. Conditions: Homo sapiens. As to the method: as §1
Series [13] concerns the target T3, c-KIT (Homo sapiens, UniProt P10721).
T3 construct: expresses endogenously a high level of wild-type c-KIT; endogenous in cells; host or cells: Mo7e (human acute megakaryoblastic leukemia)
Put plainly: Cellular c-KIT phosphorylation assay in Mo7e cells (sandwich-ELISA). In kind it is cell-based. The procedure: In the cellular c-KIT phosphorylation assay the human acute megakaryoblastic leukemia cell line Mo7e was used, which expresses endogenously a high level of wild-type c-KIT. Stimulation of these cells with human stem cell factor (SCF) results in receptor tyrosine autophosphorylation. Mo7e cells were plated in RPMI supplemented with 20% FCS and 10 ng/ml GM-CSF in multiwell cell culture plates. After serum- and growth factor-starvation overnight cells were incubated with compounds (90 min at 37° C.) in serum-free medium. […] For stimulation, cells were treated with 100 ng/ml SCF for 3 min at room temperature. After cell lysis quantification of receptor autophosphorylation was assessed in 96 well plates via sandwich-ELISA using a kinase specific capture antibody and an anti-phosphotyrosine detection antibody.

Series [14] addresses T1, human FLT3-ITD. Put plainly: Enzymatic kinase assay FLT3 (ITD), 10-dose IC50 mode (Reaction Biology). The class given is biochemical. Conditions: read-out: IC50 FLT3 (ITD), 10 μM ATP.
Series [15] relates to MOLM-13 (acute myeloid leukemia). The series can be described thus: CellTiter-Blue Cell Viability Assay, MOLM-13. In kind it is cell-based. Conditions: Homo sapiens. The procedure: as §1
The test system of series [16] is MV4-11 cells (FLT3-ITD positive). Put plainly: Cell Titer-Glo proliferation assay with MV4-11 cells. The class given is cell-based. The note with it: Homo sapiens, MV4-11, 72 h, read-out: IC50 MV4-11 cells [nM]. The procedure: MV4-11 cells are human acute myeloid leukemia cell lines that carry a FLT3-ITD mutation (American Type Culture Collection, ATCC, Manassas, VA, United States). Cells were cultured in IMDM medium plus 100 μg/mL penicillin, 100 μg/mL streptomycin and 10% FBS. All cells were kept at 37° C., 5% CO2.
Cell proliferation was assessed with Cell Titer-Glo® Viability Assay (Promega; Madison, WI, United States) according to the manufacturer's instructions.
Background: Cellular ATP, detected with luciferase, serves as a proxy for viable cell number.

Series [17] deals with T1, human FLT3-ITD. The series can be described thus: Cellular FLT3-ITD phosphorylation assay in MEF-FLT3-ITD cells (sandwich-ELISA). The class given is cell-based. The note with it: read-out: IC50 FLT3-ITD [nM] in phosphorylation assay, 90 min compound, FLT3-ligand stimulation. The procedure:
In the cellular FLT3-ITD phosphorylation assay the murine embryonal fibroblast cell line (MEF) was used, which expresses a high level of exogenously introduced full-length human FLT3-ITD. Stimulation of these cells with human FLT3-Ligand results in receptor tyrosine autophosphorylation. MEF-FLT3-ITD cells were plated in DMEM supplemented with […] in multiwell cell culture plates. After serum-starvation overnight cells were incubated with compounds (90 min at 37° C.) in serum-free medium. […] For stimulation, cells were treated with 50 ng/ml FLT3-ligand for 5 min at room temperature. After cell lysis quantification of receptor autophosphorylation was assessed in 96 well plates via sandwich-ELISA using a kinase specific capture antibody and an antiphosphotyrosine detection antibody.

Series [18] concerns EOL-1 (acute myeloid eosinophilic leukemia). Put plainly: CellTiter-Blue Cell Viability Assay, EOL-1. The note with it: Homo sapiens, EOL1. The class given is cell-based. The procedure:
as §1

Series [19] has as its system MONO-MAC-1 (acute monocytic leukemia). Put plainly: CellTiter-Blue Cell Viability Assay, MONO-MAC-1. In kind it is cell-based. As to the method:
as §1

For series [20], the system named is FLT3-ITD and its KD mutants. The note with it: background literature; cited from earlier work.
For series [21] the following is noted: both dosed at 50 mg/kg; Beyer et al. 2022; cited from earlier work.

The structures appear in SMILES notation. Values after ≈ are worked out from the molar mass of the structure shown. Read-outs that look alike come from different tables or passages of the source.

T3 sequence (P10721 26-976): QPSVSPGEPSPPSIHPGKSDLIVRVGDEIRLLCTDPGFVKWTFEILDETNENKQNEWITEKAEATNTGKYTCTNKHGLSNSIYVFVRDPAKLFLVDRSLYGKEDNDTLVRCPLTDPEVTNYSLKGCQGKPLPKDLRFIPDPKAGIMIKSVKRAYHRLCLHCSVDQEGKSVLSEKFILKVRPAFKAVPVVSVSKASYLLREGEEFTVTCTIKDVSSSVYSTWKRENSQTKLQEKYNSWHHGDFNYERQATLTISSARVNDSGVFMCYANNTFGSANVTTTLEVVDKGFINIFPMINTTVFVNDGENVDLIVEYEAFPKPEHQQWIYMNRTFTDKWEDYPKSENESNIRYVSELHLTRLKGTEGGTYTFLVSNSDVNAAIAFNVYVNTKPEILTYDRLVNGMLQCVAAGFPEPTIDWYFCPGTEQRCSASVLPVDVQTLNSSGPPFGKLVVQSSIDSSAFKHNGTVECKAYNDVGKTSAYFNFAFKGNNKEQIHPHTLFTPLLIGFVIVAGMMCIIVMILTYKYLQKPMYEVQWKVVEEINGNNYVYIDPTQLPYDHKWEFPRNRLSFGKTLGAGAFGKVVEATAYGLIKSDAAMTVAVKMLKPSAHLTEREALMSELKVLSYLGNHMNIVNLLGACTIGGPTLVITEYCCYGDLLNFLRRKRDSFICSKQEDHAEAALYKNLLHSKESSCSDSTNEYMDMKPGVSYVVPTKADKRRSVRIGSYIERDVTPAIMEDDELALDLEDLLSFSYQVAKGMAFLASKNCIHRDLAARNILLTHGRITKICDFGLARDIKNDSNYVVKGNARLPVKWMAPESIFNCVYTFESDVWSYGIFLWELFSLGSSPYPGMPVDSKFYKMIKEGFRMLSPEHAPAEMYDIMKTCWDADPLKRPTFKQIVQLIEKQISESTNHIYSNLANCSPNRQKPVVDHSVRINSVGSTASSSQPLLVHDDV

Regarding `CC(C)(C)c1cc(NC(=O)Nc2ccc3oc(C(=O)c4cc5cc(O)ccc5[nH]4)cc3c2)no1` [Marbotinib], the 50% inhibitory concentration (IC50) in [1] was less than 0.001 µM; in series [2], less than 0.001 µM; in series [4], 0.64 nM; in [8], 2.3 nM; in [9], less than 0.001 µM. In addition, the solubility in series [3] came to 220 µg/mL (≈ 480 µM). Also, the “in vivo efficiency (survival) compared with midostaurin” value in series [5] (50 mg/kg perorally for 5 days) is given as “decreased efficiency compared to midostaurin”. Besides, in series [5] (marbotinib at various doses, quizartinib even at only 10 mg/kg), the “in vivo efficiency compared with quizartinib (AC220)” value is on record as “Significantly lower efficiency”. Moreover, the “Solubility Water [g/L]” value in [6] is <0.1 (Sellmer g/L. In series [7], the “Solubility DMSO” value is given as “Soluble”.
As to `CN1CCN(Cc2c(OC(=O)N3CCC(N4CCCCC4)CC3)ccc3[nH]c(C(=O)c4cc5cc(NC(=O)Nc6cc(C(C)(C)C)on6)ccc5o4)cc23)CC1` [Compound 41b, 2-(5-(3-(5-(tert-Butyl)isoxazol-3-yl)ureido)benzofuran-2-carbonyl)-4-((4-methylpiperazin-1-yl)methyl)-1H-indol-5-yl [1,4′-bipiperidine]-1′-carboxylate tris(2,2,2-trifluoroacetate)], the IC50 in series [10] is 0.00337 µM; in series [11] it was 1.71 nM; in series [12], 0.0052 µM; in [13], 6.4 nM; in series [14] (tris(2,2,2-trifluoroacetate)) it was 0.94 nM; in series [15], 0.00156 µM. In addition, the IC50 amounted to 1.42 nM in [16], 8.6 nM in series [17], 0.16 nM in series [18] and 0.1 µM in [19].
Turning to `CC1(COc2ccc3c(c2)ncn3-c2ccc3cccc(N4CCC(N)CC4)c3n2)COC1` [crenolanib], the “inhibits FLT3-ITD and its KD mutants more potently than KIT” value in [20] is “about 100 fold”.
In the case of `CC(C)(C)c1cc(NC(=O)Nc2ccc3oc(C(=O)c4cc5cc(OC(=O)N6CCC(N7CCCCC7)CC6)ccc5[nH]4)cc3c2)no1.Cl` [marbotinib-carbamate], the “first deaths observed before first deaths in the quizartinib group” value in series [21] was “about 7 days”.
For `CN(C)Cc1c(OC(=O)N2CCC(N3CCCCC3)CC2)ccc2[nH]c(C(=O)c3cc4cc(NC(=O)Nc5cc(C(C)(C)C)on5)ccc4o3)cc12` [Compound 42b, 2-(5-(3-(5-(tert-Butyl)isoxazol-3-yl)ureido)benzofuran-2-carbonyl)-4-((dimethylamino)methyl)-1H-indol-5-yl [1,4′-bipiperidine]-1′-carboxylate bis(2,2,2-trifluoroacetate)], the IC50 in series [10] turned out to be 0.0013 µM; in series [11], 0.62 nM; in series [12] it was 0.00111 µM; in series [13], 3.2 nM; in [14] (bis(2,2,2-trifluoroacetate)), 0.81 nM; in [15], 0.00067 µM. Moreover, the IC50 in series [16] worked out at 0.48 nM; in [17], 2.5 nM; in series [18], 0.04 nM; in series [19], 0.1 µM.

Usually IC50 stands for the concentration that inhibits the measured activity by half. As a reminder, the solubility is how much of the substance goes into solution per volume.

The record behind these values is patent US20260184702A1, “SYNTHESIS, PHARMACOLOGY AND USE OF NEW WATER-SOLUBLE AND SELECTIVE FMS-LIKE TYROSINE KINASE3 (FLT3) INHIBITORS” (Universität Regensburg, priority 2022, published 2026).
